The Ki is a dissociation constant, usually derived from enzyme kinetics or from competition with a known ligand. Low values mean higher affinity, high ones lower affinity.

The target in data set [1] is VMAT2 (human platelet homogenate) (Homo sapiens (Human), UniProt Q05940). Put plainly: Human VMAT2 Ki, slightly modified competition binding procedure (Table 11).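 Also: competition binding with 90 min incubation at 25 °C, after which filter-retained radioligand was measured by scintillation counting.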 The conditions noted are these: 10 nM 3H-dihydrotetrabenazine.
Chain of VMAT2 (human platelet homogenate) (Q05940 whole entry): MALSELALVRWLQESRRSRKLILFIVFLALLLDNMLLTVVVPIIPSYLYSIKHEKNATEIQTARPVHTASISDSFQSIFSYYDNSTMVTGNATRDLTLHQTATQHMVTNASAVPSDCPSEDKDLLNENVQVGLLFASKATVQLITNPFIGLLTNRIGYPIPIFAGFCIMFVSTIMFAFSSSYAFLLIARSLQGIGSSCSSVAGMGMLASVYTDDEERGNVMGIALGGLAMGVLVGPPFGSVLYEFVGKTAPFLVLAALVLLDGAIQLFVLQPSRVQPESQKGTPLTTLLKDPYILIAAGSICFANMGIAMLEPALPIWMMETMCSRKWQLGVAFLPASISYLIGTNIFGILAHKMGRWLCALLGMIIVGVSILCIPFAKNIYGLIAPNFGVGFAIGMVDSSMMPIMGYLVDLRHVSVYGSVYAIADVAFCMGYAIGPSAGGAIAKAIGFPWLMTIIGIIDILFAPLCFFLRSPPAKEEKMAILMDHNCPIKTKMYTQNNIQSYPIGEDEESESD
Method: Following incubation at 25° C. for 90 minutes, bound radioligand was collected by rapid filtration onto GF/B glass fiber filters using a Unifilter-96 Harvester (PerkinElmer). Filter plates were pre-treated with 0.1% polyethylenimine and allowed to dry overnight, and following harvesting the filter plates were washed with 800 d VMAT2 binding buffer. Bound radioligand was quantified by scintillation counting using a Topcount NXT (PerkinElmer).
A short description of data set [2]: In vitro human intestinal S9 hydrolysis assay (formation of compound 1-1). The conditions noted are these: human intestinal S9, 1 uM, 37° C., up to 60 minutes.
Method: Compounds (1 uM) were incubated with pooled intestinal S9 subcellular preparations (0.5 mg/mL total protein) from SD rats and humans without the addition of protease inhibitor phenylmethylsulfonylflouride. Incubations were carried out in a potassium phosphate buffer (50 mM). All concentrations were relative to the final incubation volume of 125 uL. Incubations were conducted at 37° C. for 0, 5, 10, 20, 40 and 60 minutes in a water bath and terminated by rapid mixing with 150 uL of ice-cold acetonitrile containing 1% formic acid. Internal standard was added and proteins were precipitated and removed by centrifugation prior to LC/MS analysis.

Take `COc1cc2c(cc1OC)[C@H]1C[C@@H](COC(=O)CC3CCNC3)[C@H](CC(C)C)CN1CC2` (stereo partly drawn) [Compound 4-16, [(2R,3S,11bR)-9,10-dimethoxy-3-(2-methylpropyl)-1H,2H,3H,4H,6H,7H,11bH-pyrido[2,1-a]isoquinolin-2-yl]methyl 2-(pyrrolidin-3-yl)acetate]: in data set [1], the Ki was less than 0.01 µM. Further, in data set [2], the “S9 Assay (ability to form compound 1-1)” value is listed as “+”.

Take `COc1cc2c(cc1OC)[C@H]1C[C@@H](COC(=O)CC(C)CC(=O)O)[C@H](CC(C)C)CN1CC2` (stereo partly drawn) [Compound 3-3, 5-{[(2R,3S,11bR)-9,10-dimethoxy-3-(2-methylpropyl)-1H,2H,3H,4H,6H,7H,11bH-pyrido[2,1-a]isoquinolin-2-yl]methoxy}-3-methyl-5-oxopentanoic acid]: the Ki in data set [1] was 0.01 to 0.5 µM. Also, in data set [2], the “S9 Assay (ability to form compound 1-1)” value was “+++”.

As to `COc1cc2c(cc1OC)[C@H]1C[C@@H](COC(=O)N3CCOC(CC(=O)O)C3)[C@H](CC(C)C)CN1CC2` (stereo partly drawn) [Compound 5-6, 2-[4-({[(2R,3S,11bR)-9,10-dimethoxy-3-(2-methylpropyl)-1H,2H,3H,4H,6H,7H,11bH-pyrido[2,1-a]isoquinolin-2-yl]methoxy}carbonyl)morpholin-2-yl]acetic acid], in data set [1], the Ki was more than 0.5 µM. The “S9 Assay (ability to form compound 1-1)” value in data set [2] is recorded as “+”.

Turning to `COc1cc2c(cc1OC)[C@H]1C[C@@H](COC(=O)CCC(=O)O)[C@H](CC(C)C)CN1CC2` [Compound 3-13], in data set [1], the Ki was in the range of 0.01 to 0.5 µM. In addition, the “S9 Assay (ability to form compound 1-1)” value in data set [2] is listed as “++”.

In data set [1], `COc1cc2c(cc1OC)[C@H]1C[C@@H](COC(=O)N3CCNCC3)[C@H](CC(C)C)CN1CC2` [Compound 6-1, [(2R,3S,11bR)-9,10-dimethoxy-3-(2-methylpropyl)-1H,2H,3H,4H,6H,7H,11bH-pyrido[2,1-a]isoquinolin-2-yl]methyl piperazine-1-carboxylate] had a Ki of less than 0.01 µM. The “S9 Assay (ability to form compound 1-1)” value in data set [2] is reported as “+”.

On to `COc1cc2c(cc1OC)[C@H]1C[C@@H](COC(=O)C[C@H]3CCNC3)[C@H](CC(C)C)CN1CC2` [Compound 4-38, [(2R,3S,11bR)-9,10-dimethoxy-3-(2-methylpropyl)-1H,2H,3H,4H,6H,7H,11bH-pyrido[2,1-a]isoquinolin-2-yl]methyl 2-[(3R)-pyrrolidin-3-yl]acetate], for which the Ki in data set [1] is less than 0.01 µM. Also, the “S9 Assay (ability to form compound 1-1)” value in data set [2] is recorded as “+”.

In the case of `COc1cc2c(cc1OC)[C@H]1C[C@@H](COC(=O)N3C[C@@H](C)N[C@@H](C)C3)[C@H](CC(C)C)CN1CC2` [Compound 6-6, [(2R,3S,11bR)-9,10-dimethoxy-3-(2-methylpropyl)-1H,2H,3H,4H,6H,7H,11bH-pyrido[2,1-a]isoquinolin-2-yl]methyl (3R,5S)-3,5-dimethylpiperazine-1-carboxylate], in data set [1], the inhibitory constant (Ki) was less than 0.01 µM. The “S9 Assay (ability to form compound 1-1)” value in data set [2] was “+”.

In the case of `COc1cc2c(cc1OC)[C@H]1C[C@@H](COC(=O)CCCCC(=O)O)[C@H](CC(C)C)CN1CC2` [Compound 3-10], the Ki in data set [1] is more than 0.5 µM. Besides, in data set [2], the “S9 Assay (ability to form compound 1-1)” value is recorded as “+++”.

The compound `COc1cc2c(cc1OC)[C@H]1C[C@@H](COC(=O)N3CCC(C(=O)O)C3)[C@H](CC(C)C)CN1CC2` (stereo partly drawn) [Compound 5-49, 1-({[(2R,3S,11bR)-9,10-dimethoxy-3-(2-methylpropyl)-1H,2H,3H,4H,6H,7H,11bH-pyrido[2,1-a]isoquinolin-2-yl]methoxy}carbonyl)pyrrolidine-3-carboxylic acid] showed a Ki in data set [1] of 0.01 to 0.5 µM. Also, the “S9 Assay (ability to form compound 1-1)” value in data set [2] is “+”.

Compound `COc1cc2c(cc1OC)[C@H]1C[C@@H](COC(=O)CC(C)(C)CC(=O)O)[C@H](CC(C)C)CN1CC2` [Compound 3-1, 5-{[(2R,3S,11bR)-9,10-dimethoxy-3-(2-methylpropyl)-1H,2H,3H,4H,6H,7H,11bH-pyrido[2,1-a]isoquinolin-2-yl]methoxy}-3,3-dimethyl-5-oxopentanoic acid] returned a Ki in data set [1] of more than 0.5 µM. Besides, the “S9 Assay (ability to form compound 1-1)” value in data set [2] was “+”.

In data set [1], `COc1cc2c(cc1OC)[C@H]1C[C@@H](COC(=O)N3CCNC[C@@H]3C)[C@H](CC(C)C)CN1CC2` [Compound 6-5, [(2R,3S,11bR)-9,10-dimethoxy-3-(2-methylpropyl)-1H,2H,3H,4H,6H,7H,11bH-pyrido[2,1-a]isoquinolin-2-yl]methyl (2S)-2-methylpiperazine-1-carboxylate] yielded a Ki of less than 0.01 µM. For the same compound, in data set [2], the “S9 Assay (ability to form compound 1-1)” value is on record as “++”.

Take `COc1cc2c(cc1OC)[C@H]1C[C@@H](COC(=O)NCCC(=O)O)[C@H](CC(C)C)CN1CC2` [Compound 5-1, 3-[({[(2R,3S,11bR)-9,10-dimethoxy-3-(2-methylpropyl)-1H,2H,3H,4H,6H,7H,11bH-pyrido[2,1-a]isoquinolin-2-yl]methoxy}carbonyl)amino]propanoic acid]: the Ki in data set [1] was less than 0.01 µM. In addition, the “S9 Assay (ability to form compound 1-1)” value in data set [2] is recorded as “+”.

In data set [1], `COc1cc2c(cc1OC)[C@H]1C[C@@H](COC(=O)N(C)C(CC(C)C)C(=O)O)[C@H](CC(C)C)CN1CC2` (stereo partly drawn) [Compound 5-46, 2-[({[(2R,3S,11bR)-9,10-dimethoxy-3-(2-methylpropyl)-1H,2H,3H,4H,6H,7H,11bH-pyrido[2,1-a]isoquinolin-2-yl]methoxy}carbonyl)(methyl)amino]-4-methylpentanoic acid] had a Ki of more than 0.5 µM. Further, the “S9 Assay (ability to form compound 1-1)” value in data set [2] was “++”.

`COc1cc2c(cc1OC)[C@H]1C[C@@H](COC(=O)N3CCC[C@@H](C(=O)O)C3)[C@H](CC(C)C)CN1CC2` [Compound 5-54, (3R)-1-({[(2R,3S,11bR)-9,10-dimethoxy-3-(2-methylpropyl)-1H,2H,3H,4H,6H,7H,11bH-pyrido[2,1-a]isoquinolin-2-yl]methoxy}carbonyl)piperidine-3-carboxylic acid]: the Ki in data set [1] was more than 0.5 µM. The “S9 Assay (ability to form compound 1-1)” value in data set [2] is given as “+”.

`COc1cc2c(cc1OC)[C@H]1C[C@@H](COC(=O)NCC[C@H](O)C(=O)O)[C@H](CC(C)C)CN1CC2` [Compound 5-56, (2S)-4-[({[(2R,3S,11bR)-9,10-dimethoxy-3-(2-methylpropyl)-1H,2H,3H,4H,6H,7H,11bH-pyrido[2,1-a]isoquinolin-2-yl]methoxy}carbonyl)amino]-2-hydroxybutanoic acid]: the Ki in data set [1] is 0.01 to 0.5 µM. For the same compound, the “S9 Assay (ability to form compound 1-1)” value in data set [2] is on record as “+”.

With `COc1cc2c(cc1OC)[C@H]1C[C@@H](COC(=O)N[C@H]3[C@@H](C(=O)O)[C@H]4C=C[C@@H]3C4)[C@H](CC(C)C)CN1CC2` [Compound 5-9, (1R,2S,3R,4S)-3-[({[(2R,3S,11bR)-9,10-dimethoxy-3-(2-methylpropyl)-1H,2H,3H,4H,6H,7H,11bH-pyrido[2,1-a]isoquinolin-2-yl]methoxy}carbonyl)amino]bicyclo[2.2.1]hept-5-ene-2-carboxylic acid], the Ki in data set [1] is more than 0.5 µM. Also, the “S9 Assay (ability to form compound 1-1)” value in data set [2] is “+”.

`COc1cc2c(cc1OC)[C@H]1C[C@@H](COC(=O)N3CCCC(C(=O)O)C3)[C@H](CC(C)C)CN1CC2` (stereo partly drawn) [Compound 5-14, 1-({[(2R,3S,11bR)-9,10-dimethoxy-3-(2-methylpropyl)-1H,2H,3H,4H,6H,7H,11bH-pyrido[2,1-a]isoquinolin-2-yl]methoxy}carbonyl)piperidine-3-carboxylic acid] had a Ki in data set [1] of more than 0.5 µM. In addition, in data set [2], the “S9 Assay (ability to form compound 1-1)” value was “+”.

`COc1cc2c(cc1OC)[C@H]1C[C@@H](COC(=O)C3CC3C(=O)O)[C@H](CC(C)C)CN1CC2` (stereo partly drawn) [Compound 3-4, 2-({[(2R,3S,11bR)-9,10-dimethoxy-3-(2-methylpropyl)-1H,2H,3H,4H,6H,7H,11bH-pyrido[2,1-a]isoquinolin-2-yl]methoxy}carbonyl)cyclopropane-1-carboxylic acid] came in with a Ki in data set [1] of 0.01 to 0.5 µM. Moreover, the “S9 Assay (ability to form compound 1-1)” value in data set [2] is recorded as “++”.

As to `COc1cc2c(cc1OC)[C@H]1C[C@@H](COC(=O)CC3(CC(=O)O)CCCC3)[C@H](CC(C)C)CN1CC2` [Compound 3-9], the Ki in data set [1] lay in the range of 0.01 to 0.5 µM. In addition, the “S9 Assay (ability to form compound 1-1)” value in data set [2] is listed as “++”.

`COc1cc2c(cc1OC)[C@H]1C[C@@H](COC(=O)NC3C4CCC(C4)C3C(=O)O)[C@H](CC(C)C)CN1CC2` (stereo partly drawn) [Compound 5-40, 3-[({[(2R,3S,11bR)-9,10-dimethoxy-3-(2-methylpropyl)-1H,2H,3H,4H,6H,7H,11bH-pyrido[2,l-a]isoquinolin-2-yl]methoxy}carbonyl)amino]bicyclo[2.2.1]heptane-2-carboxylic acid]: the Ki in data set [1] is 0.01 to 0.5 µM. Besides, the “S9 Assay (ability to form compound 1-1)” value in data set [2] is listed as “+”.

In data set [1], `COc1cc2c(cc1OC)[C@H]1C[C@@H](COC(=O)CCC(C)(C)C(=O)O)[C@H](CC(C)C)CN1CC2` [Compound 3-12] registered a Ki of 0.01 to 0.5 µM. In addition, in data set [2], the “S9 Assay (ability to form compound 1-1)” value is “+++”.

`COc1cc2c(cc1OC)[C@H]1C[C@@H](COC(=O)C[C@@H]3CCCN3)[C@H](CC(C)C)CN1CC2` [Compound 4-36] yielded a Ki in data set [1] of less than 0.01 µM. Besides, in data set [2], the “S9 Assay (ability to form compound 1-1)” value was “+++”.

For `COc1cc2c(cc1OC)[C@H]1C[C@@H](COC(=O)[C@H]3CCCNC3)[C@H](CC(C)C)CN1CC2` [Compound 4-13, [(2R,3S,11bR)-9,10-dimethoxy-3-(2-methylpropyl)-1H,2H,3H,4H,6H,7H,11bH-pyrido[2,1-a]isoquinolin-2-yl]methyl (3S)-piperidine-3-carboxylate], the Ki in data set [1] was less than 0.01 µM. Moreover, the “S9 Assay (ability to form compound 1-1)” value in data set [2] was “+++”.

In turn, `COc1cc2c(cc1OC)[C@H]1C[C@@H](COC(=O)C3CCNCC3C)[C@H](CC(C)C)CN1CC2` (stereo partly drawn) [Compound 4-15, [(2R,3S,11bR)-9,10-dimethoxy-3-(2-methylpropyl)-1H,2H,3H,4H,6H,7H,11bH-pyrido[2,1-a]isoquinolin-2-yl]methyl 3-methylpiperidine-4-carboxylate] gave a Ki in data set [1] of less than 0.01 µM. Also, the “S9 Assay (ability to form compound 1-1)” value in data set [2] is “+”.

As for `COc1cc2c(cc1OC)[C@H]1C[C@@H](COC(=O)CC3CCN(C)C3)[C@H](CC(C)C)CN1CC2` (stereo partly drawn) [Compound 2-10, [(2R,3S,11bR)-9,10-dimethoxy-3-(2-methylpropyl)-1H,2H,3H,4H,6H,7H,11bH-pyrido[2,1-a]isoquinolin-2-yl]methyl 2-(1-methylpyrrolidin-3-yl)acetate], in data set [1], the Ki was less than 0.01 µM. For the same compound, the “S9 Assay (ability to form compound 1-1)” value in data set [2] was “+++”.

The values above are taken from patent publication US11053242B2, “[9,10-dimethoxy-3-(2-methylpropyl)-1H,2H,3H,4H,6H,7H,11BH-pyrido-[2,1-a]isoquinolin-2-yl]methanol and compounds, compositions and methods relating thereto” (Neurocrine Biosciences, Inc., priority 2015, dated 2021).
